Experimental findings from US8507498B2, “4, 6-disubstituted aminopyrimidine derivatives as inhibitors of protein kinases” (Ingenium Pharmaceuticals GmbH, priority 2007, dated 2013) are described below.

“Also recorded” adds a separate entry of the source.

Data set [1] has as its system TNFα expression in LPS-induced THP-1 macrophages. Nature of the data set: In vitro THP-1 assay, TNFα ELISA. Format: cell-based, human. To be noted: 0.5 to 5 μM, 60 min pre-incubation, vs DMSO. The protocol: (§1) THP-1 cells are grown in modified RPMI-1640 medium (ATCC, Cat. No. 30-2001) supplemented with 10% FCS and 1% Pen/Strep. For cytokine inhibition assays, cells are seeded at a density of 5×10^5 cells/ml into 6-well plates in standard growth medium supplemented with 100 ng/ml PMA (Sigma, P1585) to induce differentiation into macrophage-like cells. After 24 hours, the medium is replaced with standard growth medium (without PMA) and the cells are incubated for another 48 hours to complete differentiation. […] Cells are incubated for 60 min with compounds prior to stimulation with 100 ng/ml LPS (Sigma, L2630) for another 4-48 hours. Supernatants are collected and assayed immediately for cytokine expression, e.g. for TNFα, IL-6 and IL-1b using commercially available sandwich ELISA assays (eBioscience, Cat. No 88-7346, 88-7066, 88-7010) or kept frozen at […] until evaluation. Concentrations of TNFα, IL6 and IL1β within the cell culture supernatants are measured by using commercial ELISA Kits (eBioscience) according to the manufacturer's instructions. CDK-inhibitory compounds # 1, 2, 3, 5, 16, 18, 19 and 32 were administered to differentiated THP-1 cells in triplicates as described above (see section 2.). After 60 min of pre-incubation with test or reference compound (SB203580, a p38 inhibitor and BMS345541, an IKK-inhibitor) alone, cells were stimulated with LPS. After incubation for 4-48 h, supernatants were collected and ELISA based determinations of cytokine supernatant concentrations were performed as described in section 3, supra.
A general note: In an ELISA, binding on a coated surface is turned into a signal by an enzyme label.

The subject of the next data set is TNFα. Nature of the data set: LPS in vivo assay, serum TNF alpha ELISA. To be noted: LPS mice, 10 or 30 mg/kg single p.o. 30 min prior to LPS, blood 90 min after LPS, vs vehicle. The protocol: (§2) For the LPS induced model of septic shock, mice receive an intraperitoneal (i.p.) injection of 30 μg bacterial Lipopolysaccharide (LPS; L2630 SIGMA) in saline. Said LPS-mediated initiation of the inflammatory signalling cascade results in increasing blood serum concentrations of cytokines such as e.g. TNFα, IL-6 and IL1β. Blood can be taken from these animals at defined time points. Thereafter, serum will be separated and the samples can be stored at −80° C. until cytokine concentrations are measured using commercial ELISA assays. (AL Moreira et al., Braz J Med Biol Res 1997; 30:1199-1207).
(§3) Wildtype mice (strain C3HeB/FeJ) (age, sex and weight matched) were injected with 30 μg LPS (SIGMA) intraperitoneally. 90 minutes after LPS administration these animals were anaesthetized with 0.1 ml/10 g bodyweight Ketamine-Rompun (50/20 mg/ml) and blood for serum preparation was taken via cardiac puncture.
(§4) Pharmacological treatment groups (n=4) of LPS mice received per os (p.o.) injections of CDK-inhibiting compounds or the vehicle (negative control), respectively. In particular, compounds 1, 5, 10, and 84 were administered.
(§5) 10 or 30 mg/kg (compound per bodyweight) of a CDK inhibitor, dissolved in 20% DMSO, 5% Tween 80, 10% Tris 1M pH8, 20% PEG400, 45% PBS was administered as a single p.o. dosage 30 min prior to LPS stimulation. Vehicle control was administered in the same manner.
(§6) 90 minutes (min) after LPS stimulation, blood samples were taken from the mice. Previously, the 90 min time point had been identified as the peak of TNF alpha expression in this animal model by a time course experiment.
(§7) Blood samples (˜500 μl/animal) from the LPS animals were incubated on wet ice for 30 min after cardiac puncture. Afterwards the samples were centrifuged for 15 min at 13.000 rpm. Serum was separated from the clot and stored frozen at −80° C.
(§8) Serum concentrations of TNF alpha and IL6 within the samples were measured by using commercial ELISA Kits (Natutec) according to the manufacturers instructions.

The subject of data set [2] is IL6 expression in LPS-induced THP-1 macrophages. Nature of the data set: In vitro THP-1 assay, IL6 ELISA. Format: cell-based, human. To be noted: 0.5 to 5 μM, 60 min pre-incubation, vs DMSO. As for the experimental part:
as §1

Another data set concerns IL6. The experiment in a line: LPS in vivo assay, serum IL6 ELISA. The following applies: LPS mice, 10 or 30 mg/kg single p.o. 30 min prior to LPS, blood 90 min after LPS, vs vehicle. The protocol:
as §2, §3, §4, §5, §6, §7, §8

Turning to `CCCS(=O)(=O)Nc1cc(Nc2cc(-c3cccc([N+](=O)[O-])c3)ncn2)ccc1C`, the melting point (in general, the temperature, or range, at which the solid turns liquid) was in the range of 202 to 203.5 °C.
`CCOc1ccccc1-c1cc(Nc2cccc(CS(N)(=O)=O)c2)ncn1` [Compound 1, {3-[6-(2-Ethoxy-phenyl)-pyrimidin-4-ylamino]-phenyl}-methanesulfonamide] yielded a melting point of 236.3 to 238.6 °C. In addition, the “inhibition of TNFα expression in the supernatant” value (shortened to “inhibition of TNFα expression”) in data set [1] is “significant inhibitory effect; also recorded: significant inhibition”. The “TNFα protein concentration in the blood serum” value (“TNFα protein concentration” for short) in the data set on TNFα is on record as “significant repressive effect”. The “inhibition of IL6 expression in the supernatant” value (“inhibition of IL6 expression” for short) in data set [2] was “significant inhibitory effect; also recorded: significant inhibition”. Also, the “IL6 protein concentration in the blood serum” value (shortened to “IL6 protein concentration”) with IL6 is recorded as “significant repressive effect”.
Regarding `COc1cc(F)ccc1-c1cc(Nc2cccc(CS(N)(=O)=O)c2)ncn1` [Compound 3, {3-[6-(4-Fluoro-2-methoxy-phenyl)-pyrimidin-4-ylamino]-phenyl}-methanesulfonamide], the “inhibition of TNFα expression” value in data set [1] is given as “significant inhibitory effect; also recorded: significant inhibition”. In addition, the “inhibition of IL6 expression” value in data set [2] was “significant inhibitory effect; also recorded: significant inhibition”.
Take `CC(C)Oc1ccccc1-c1cc(Nc2cccc(CS(N)(=O)=O)c2)ncn1` [Compound 5, {3-[6-(2-Isopropoxy-phenyl)-pyrimidin-4-ylamino]-phenyl}-methanesulfonamide]: the “TNFα protein concentration” value in the data set with TNFα is reported as “significant repressive effect”. The “inhibition of IL6 expression” value in data set [2] is listed as “significant inhibition”. Further, the “IL6 protein concentration” value with IL6 is given as “significant repressive effect”.
With `COc1ccccc1-c1cc(Nc2cccc(CS(=O)(=O)NC(C)C)c2)ncn1` [Compound 10, N-Isopropyl-C-{3-[6-(2-methoxy-phenyl)-pyrimidin-4-ylamino]-phenyl}-methanesulfonamide], in the data set on TNFα, the “TNFα protein concentration” value is “significant repressive effect”. The “IL6 protein concentration” value with IL6 is recorded as “significant repressive effect”.
Regarding `COc1ccccc1-c1cc(Nc2cccc(CS(=O)(=O)NC3CCCC3)c2)ncn1` [Compound 16, N-Cyclopentyl-C-{3-[6-(2-methoxy-phenyl)-pyrimidin-4-ylamino]-phenyl}-methanesulfonamide], the “inhibition of TNFα expression” value in data set [1] is “significant inhibitory effect; also recorded: significant inhibition”. The “inhibition of IL6 expression” value in data set [2] was “significant inhibitory effect; also recorded: significant inhibition”.
`CCOc1ccccc1-c1cc(Nc2cccc(CS(=O)(=O)NC3CC3)c2)ncn1` [Compound 18, N-Cyclopropyl-C-{3-[6-(2-ethoxy-phenyl)-pyrimidin-4-ylamino]-phenyl}-methanesulfonamide]: the “inhibition of TNFα expression” value in data set [1] is “significant inhibitory effect; also recorded: significant inhibition”. Besides, the “inhibition of IL6 expression” value in data set [2] is given as “significant inhibitory effect; also recorded: significant inhibition”.
For `CCOc1ccccc1-c1cc(Nc2cccc(CS(=O)(=O)NC(C)(C)C)c2)ncn1` [Compound 19, N-tert-Butyl-C-{3-[6-(2-ethoxy-phenyl)-pyrimidin-4-ylamino]-phenyl}-methanesulfonamide], the “inhibition of TNFα expression” value in data set [1] was “significant inhibitory effect; also recorded: significant inhibition”. In addition, the “inhibition of IL6 expression” value in data set [2] is on record as “significant inhibitory effect; also recorded: significant inhibition”.
Turning to `NS(=O)(=O)Cc1cccc(Nc2cc(-c3ccccc3OCc3ccccc3)ncn2)c1` [Compound 32, {3-[6-(2-Benzyloxy-phenyl)-pyrimidin-4-ylamino]-phenyl}-methanesulfonamide], the “inhibition of TNFα expression” value in data set [1] is listed as “significant inhibitory effect; also recorded: significant inhibition”. Moreover, the “inhibition of IL6 expression” value in data set [2] is listed as “significant inhibitory effect; also recorded: significant inhibition”.
Consider `COCCCNS(=O)(=O)Cc1cccc(Nc2cc(-c3ccccc3OC)ncn2)c1` [Compound 33, C-{3-[6-(2-Methoxy-phenyl)-pyrimidin-4-ylamino]-phenyl}-N-(3-methoxy-propyl)-methanesulfonamide], for which the melting point lay in the range of 149.2 to 150.8 °C.
With `COCCOc1ccccc1-c1cc(Nc2cccc(CS(C)(=O)=O)c2)ncn1` [Compound 57, (3-Methanesulfonylmethyl-phenyl)-{6-[2-(2-methoxy-ethoxy)-phenyl]-pyrimidin-4-yl}-amine], the melting point lay within 141 to 142.9 °C.
On to `NS(=O)(=O)Cc1cccc(Nc2cc(-c3cccc(C(F)(F)F)c3)ncn2)c1` [Compound 63, {3-[6-(3-Trifluoromethyl-phenyl)-pyrimidin-4-ylamino]-phenyl}-methanesulfonamide], for which the melting point fell in the range of 221.5 to 223 °C.
Same read-out and setting: with `CS(=O)(=O)Cc1cccc(Nc2cc(-c3ccccc3OCC3CCCO3)ncn2)c1` (stereo not drawn) [Compound 64, (3-methanesulfonylmethyl-phenyl)-{6-[2-(tetrahydro-furan-2-ylmethoxy)-phenyl]-pyrimidin-4-yl}-amine] the figure was 160 to 162.6 °C.
Still for that read-out and setting: with `COc1ccccc1-c1cc(Nc2cccc(CS(N)(=O)=O)c2)nc(N)n1` [Compound 66, {3-[2-amino-6-(2-methoxy-phenyl)-pyrimidin-4-ylamino]-phenyl}-methanesulfonamide] the figure was 211.7 to 213.1 °C.
Consider `CNS(=O)(=O)Cc1cccc(Nc2cc(-c3ccccc3COC)ncn2)c1` [Compound 80, C-{3-[6-(2-methoxymethyl-phenyl)-pyrimidin-4-ylamino]-phenyl}-N-methyl-methanesulfonamide], for which the melting point fell in the range of 171 to 172 °C.
Still for that read-out and setting: with `NS(=O)(=O)Cc1cccc(Nc2cc(-c3ccccc3OCC3CCCO3)ncn2)c1` (stereo not drawn) [Compound 82, (3-{6-[2-(tetrahydro-furan-2-ylmethoxy)-phenyl]-pyrimidin-4-ylamino}-phenyl)-methanesulfonamide] the figure was 168.4 to 169.4 °C.
On the same count and under the same terms, with `COCCOc1ccccc1-c1cc(Nc2cccc(CS(N)(=O)=O)c2)nc(C)n1` [Compound 83, (3-{6-[2-(2-methoxy-ethoxy)-phenyl]-2-methyl-pyrimidin-4-ylamino}-phenyl)-methanesulfonamide] the figure was 209 to 211.1 °C.
Turning to `COc1ccccc1-c1cc(Nc2cccc(CS(=O)(=O)CCCN(C)C)c2)ncn1` [Compound 84, [3-(3-Dimethylamino-propane-1-sulfonylmethyl)-phenyl]-[6-(2-methoxy-phenyl)-pyrimidin-4-yl]-amine], the “TNFα protein concentration” value with TNFα is listed as “significant repressive effect”. Further, the “IL6 protein concentration” value in the data set with IL6 is reported as “significant repressive effect”.
As for `CS(=O)(=O)c1cccc(Nc2cc(-c3ccccc3O)ncn2)c1` [Reference Example 49, 2-[6-(3-methanesulfonyl-phenylamino)-pyrimidin-4-yl]-phenol], the melting point lay within 214 to 216.1 °C.
Still for that read-out and setting: as for `CS(=O)(=O)c1cccc(Nc2cc(-c3ccccc3OCc3ccccc3)ncn2)c1` [Reference Example 51, [6-(2-benzyloxy-phenyl)-pyrimidin-4-yl]-(3-methanesulfonyl-phenyl)-amine], the figure is 199 to 205 °C.
